# Assay: method code SF-AS, from DOI: 10.1007/bf01990207, PMID: 819289
# Conditions: pH 7.4
row,logD,SMILES
1,1.51,CCCCCCNC(=O)CNC(=O)C=[N+]=[N-]

# Assay: method code SF, from DOI: 10.1007/bf01990207, PMID: 819289
# Conditions: pH 7.4
row,SMILES,logD
1,[N-]=[N+]=CC(=O)NCC(=O)NCCO,-1.35
2,[N-]=[N+]=CC(=O)NCC(N)=O,-1.26
3,[N-]=[N+]=CC(=O)NCC(=O)NN,-0.76
4,CCOC(=O)CNC(=O)C=[N+]=[N-],-0.08
5,CC(C)NC(=O)CNC(=O)C=[N+]=[N-],-0.41
6,CC(C)CNC(=O)CNC(=O)C=[N+]=[N-],0.37
7,CNC(=O)CNC(=O)C=[N+]=[N-],-0.87
8,CCCNC(=O)CNC(=O)C=[N+]=[N-],-0.24
9,CCNC(=O)CNC(=O)C=[N+]=[N-],-0.62
